How the values were obtained:
human APJ receptor = human APJ receptor (Homo sapiens (Human), UniProt P35414); experiment: [35S]GTPγS binding assay (hAPJ SPA); format: biochemical; details: membranes from CHO cells stably expressing human APJ receptor, read-out: Activity hAPJ SPA EC50 IP
Experimental: [^35S]GTPγS Binding The human APJ receptor was cloned by polymerase chain reaction and the gene encoding the receptor was subcloned in pFLAG-CMV™-3 expression vector (Sigma, Saint Louis, Mo. USA) in-house at Amgen. A GTPγS binding assay was performed on membranes prepared from CHO cells stably expressing human APJ receptor. The optimum experimental conditions for the concentrations of GDP, MgCl2, and NaCl in the assay buffer were initially determined. […] Incubation was at RT for 90 min and the microplate was read using a ViewLux™ ultra HTS Microplate Imager (PerkinElmer, Inc.). All the results presented are means of several independent experiments and analyzed by non-linear regression methods using the commercially available program Prism (GraphPad, San Diego, Calif.) providing the EC50 values detailed in Table 3.

[1] = molecular target: human APJ-AT1R (angiotensin Type 1) double stable CHO cell line (Homo sapiens (Human), UniProt P35414); experiment: IP1 accumulation (TR-FRET), APJ-AT1R double stable CHO cell line; format: cell-based; details: in the presence of AngII and APJ small molecule agonists
Experimental: (§1) Single and double stable recombinant cell lines were generated for human APJ and the AT1R receptor in CHO K1 cells tagged either with FLAG or hemagglutinin (HA) tag. Briefly, the CHO-K1 APJ/AT1R cells were seeded in culture medium of DMEM-F12 and 10% FBS at a density of 15 k/well in a 96 well plate overnight. The next day, the culture medium was replaced with medium containing no serum for 4 hours. The compound AngII at a range of concentrations (1 pM-10 μM) with or without different concentrations of APJ agonists were diluted in stimulation buffer and added to the cell plate. The plate was sealed and incubated for 1 hour. This was followed by addition of IP-d2 conjugate followed by europium cryptate antibody conjugate into the wells. The plate was sealed, followed with incubation for 2 hours at RT. Time-resolved fluorescence resonance energy (TR-FRET) at 620 nm and 665 nm was measured after 2 horns with an Envision reader. The signal ratios and delta F were calculated and the amount of IP1 produced was inversely proportional to the TR-FRET ratio, 665/620 nm.

[2] = molecular target: human AT1R receptor expressed in the CHO cell line (Homo sapiens (Human), UniProt P30556); details: AT1R expressed alone, no APJ expression
Experimental: as §1

isolated cardiomyocyctes = details: isolated cardiomyocytes, exogenous apelin; cited from earlier work
heart failure rats = experiment: Cardiac function in heart failure rats in vivo; design: species or system rat; details: captopril alone, acute settings
From the text: The interaction between […] (ACE2) and Apelin biology is complicated. To investigate the interaction between the Apelin-APJ and ACE signalling pathways, we examined the improvement in cardiac function with APJ small molecule agonists in the presence of ACE inhibitor captopril in heart failure rats in vivo. […] However, in the presence of an APJ agonist, there was a shift in potency to the left with marked improvement in contractility and ejection fraction without changes in heart rate. These findings provide a new reference for the understanding of the regulation of ACE2 for the renin angiotensin aldosterone system (RAAS), independent of AT1R signaling and offer new potential drug targets for the treatment of diseases such as hypertension and heart failure. This work clearly establishes that combination of an agonist of the APJ receptor with an ARB such as losartan and/or with an ACE inhibitor such as captopril which may play an important role in providing greater efficacy in treating heart failure patients, for example in improving contractility and ejection fraction without changing the heart rate.

Sequence of human APJ receptor (P35414 whole entry): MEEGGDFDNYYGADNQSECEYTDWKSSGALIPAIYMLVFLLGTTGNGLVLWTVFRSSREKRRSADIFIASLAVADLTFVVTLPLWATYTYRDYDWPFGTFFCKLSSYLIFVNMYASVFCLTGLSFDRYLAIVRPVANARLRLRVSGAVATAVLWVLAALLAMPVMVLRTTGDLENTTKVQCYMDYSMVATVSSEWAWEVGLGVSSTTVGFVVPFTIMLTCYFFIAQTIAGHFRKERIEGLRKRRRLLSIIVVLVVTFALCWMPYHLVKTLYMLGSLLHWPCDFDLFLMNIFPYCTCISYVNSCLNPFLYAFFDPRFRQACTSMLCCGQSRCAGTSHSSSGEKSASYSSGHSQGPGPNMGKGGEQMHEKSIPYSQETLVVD
Sequence of human APJ-AT1R (angiotensin Type 1) double stable CHO cell line (P35414 whole entry): as above
Sequence of human AT1R receptor expressed in the CHO cell line (P30556 whole entry): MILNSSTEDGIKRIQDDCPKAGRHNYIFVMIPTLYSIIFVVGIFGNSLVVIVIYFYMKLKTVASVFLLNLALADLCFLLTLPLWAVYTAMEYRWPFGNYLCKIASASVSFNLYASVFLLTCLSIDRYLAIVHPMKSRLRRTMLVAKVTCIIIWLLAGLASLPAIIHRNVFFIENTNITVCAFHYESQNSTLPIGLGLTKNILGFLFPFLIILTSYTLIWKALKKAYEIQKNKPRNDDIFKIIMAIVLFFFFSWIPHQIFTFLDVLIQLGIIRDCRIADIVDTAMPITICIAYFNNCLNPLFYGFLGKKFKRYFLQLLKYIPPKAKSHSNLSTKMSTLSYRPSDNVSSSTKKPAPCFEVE

Compound	EC50 (human APJ receptor) [nM]	further results
COc1cccc(OC)c1-n1c(-c2ccccc2)nc(O)c(NS(=O)(=O)CCc2ncc(F)cn2)c1=O [Example 4.24, N-[1-(2,6-dimethoxyphenyl)-4-hydroxy-6-oxo-2-phenyl-pyrimidin-5-yl]-2-(5-fluoropyrimidin-2-yl)ethanesulfonamide]	1.5	
CCCCc1nc(O)c(NS(=O)(=O)C(C)C)c(=O)n1-c1c(OC)cccc1OC [Example 4.1, N-(2-butyl-1-(2,6-dimethoxyphenyl)-4-hydroxy-6-oxo-1,6-dihydropyrimidin-5-yl)propane-2-sulfonamide]	745	
CCCCc1nc(O)c(NS(=O)(=O)CCc2ccccc2)c(=O)n1-c1c(OC)cccc1OC [Example 4.4b, N-(2-butyl-1-(2,6-dimethoxyphenyl)-4-hydroxy-6-oxo-1,6-dihydropyrimidin-5-yl)-2-phenylethane-1-sulfonamide]	193	
CCCCc1nc(O)c(NS(=O)(=O)CCc2ncc(F)cn2)c(=O)n1-c1c(OC)cccc1OC [Example 4.0, N-(2-Butyl-1-(2,6-dimethoxyphenyl)-4-hydroxy-6-oxo-1,6-dihydropyrimidin-5-yl)-2-(5-fluoropyrimidin-2-yl)ethane-1-sulfonamide]	30	
COc1cccc(OC)c1-n1c(C2CCCC2)nc(O)c(NS(=O)(=O)CCc2ncc(F)cn2)c1=O [Example 4.17, N-[2-cyclopentyl-1-(2,6-dimethoxyphenyl)-4-hydroxy-6-oxo-pyrimidin-5-yl]-2-(5-fluoropyrimidin-2-yl)ethanesulfonamide]	2.8	
CCCCc1nc(O)c(NS(=O)(=O)[C@H]2CCCN(c3ncc(F)cn3)C2)c(=O)n1-c1c(OC)cccc1OC (single isomer, unassigned) [Example 4.7, (S)-N-(2-butyl-1-(2,6-dimethoxyphenyl)-4-hydroxy-6-oxo-1,6-dihydropyrimidin-5-yl)-1-(5-fluoropyrimidin-2-yl)piperidine-3-sulfonamide or (R)-N-(2-butyl-1-(2,6-dimethoxyphenyl)-4-hydroxy-6-oxo-1,6-dihydropyrimidin-5-yl)-1-(5-fluoropyrimidin-2-yl)piperidine-3-sulfonamide]	78	
CCCCc1nc(Cl)c(CO)n1Cc1ccc(-c2ccccc2-c2nn[nH]n2)cc1 [losartan]		effect of AT1R blockade on APJ agonist-induced cooperativity [1]: relieved this cooperativity and resulted in synergistic effects of enhancing the efficacy of the APJ receptor
CCCCc1nc(O)c(NS(=O)(=O)c2ccccc2)c(=O)n1-c1c(OC)cccc1OC [Example 4.4a, N-(2-butyl-1-(2,6-dimethoxyphenyl)-4-hydroxy-6-oxo-1,6-dihydropyrimidin-5-yl)benzenesulfonamide]	244	
CCCCc1nc(O)c(NS(=O)(=O)C[C@@H](C)c2ncc(F)cn2)c(=O)n1-c1c(OC)cccc1OC (single isomer, unassigned) [Example 4.6, (S)-N-(2-butyl-1-(2,6-dimethoxyphenyl)-4-hydroxy-6-oxo-1,6-dihydropyrimidin-5-yl)-2-(5-fluoropyrimidin-2-yl)propane-1-sulfonamide or (R)-N-(2-butyl-1-(2,6-dimethoxyphenyl)-4-hydroxy-6-oxo-1,6-dihydropyrimidin-5-yl)-2-(5-fluoropyrimidin-2-yl)propane-1-sulfonamide]	20	
CCCCc1nc(O)c(NS(=O)(=O)Cc2ccccc2)c(=O)n1-c1c(OC)cccc1OC [Example 4.3, N-(2-butyl-1-(2,6-dimethoxyphenyl)-4-hydroxy-6-oxo-1,6-dihydropyrimidin-5-yl)-1-phenylmethanesulfonamidesulfonamide]	194	
pyr apelin-13		cooperativity on AngII-induced IP1 response [2]: no positive cooperativity observed
CCCCc1nc(O)c(NS(=O)(=O)C2CCCCC2)c(=O)n1-c1c(OC)cccc1OC [Example 4.9, N-(2-butyl-1-(2,6-dimethoxyphenyl)-4-hydroxy-6-oxo-1,6-dihydro-5-pyrimidinyl)cyclohexanesulfonamide]	193	
CCCCc1nc(O)c(NS(=O)(=O)[C@@H](C)[C@H](OC)c2ncc(C)cn2)c(=O)n1-c1c(OC)cccc1OC [Example 4.8, (1R,2S)-N-(2-butyl-1-(2,6-dimethoxyphenyl)-4-hydroxy-6-oxo-1,6-dihydropyrimidin-5-yl)-1-methoxy-1-(5-methylpyrimidin-2-yl)propane-2-sulfonamide]	86	
CCCCc1nc(O)c(NS(=O)(=O)C[C@H](C)c2ncc(F)cn2)c(=O)n1-c1c(OC)cccc1OC (single isomer, unassigned) [Example 4.5, (R)-N-(2-butyl-1-(2,6-dimethoxyphenyl)-4-hydroxy-6-oxo-1,6-dihydropyrimidin-5-yl)-2-(5-fluoropyrimidin-2-yl)propane-1-sulfonamide or (S)-N-(2-butyl-1-(2,6-dimethoxyphenyl)-4-hydroxy-6-oxo-1,6-dihydropyrimidin-5-yl)-2-(5-fluoropyrimidin-2-yl)propane-1-sulfonamide]	11	
apelin		increase in sarcomere shortening (isolated cardiomyocyctes): up to 140%
CCCCc1nc(O)c(NS(=O)(=O)[C@@H](C)[C@H](C)c2ncc(F)cn2)c(=O)n1-c1c(OC)cccc1OC [Example 4.2, (2S,3R)-N-(2-butyl-1-(2,6-dimethoxyphenyl)-4-hydroxy-6-oxo-1,6-dihydropyrimidin-5-yl)-3-(5-fluoropyrimidin-2-yl)butane-2-sulfonamide]	27	
C[C@H](CS)C(=O)N1CCC[C@H]1C(=O)O [Captopril, captopril]		improvement in contractility or ejection fraction (heart failure rats): does not show a marked improvement in contractility or ejection fraction acutely

— US11807624B2, “Substituted pyrimidinones as agonists of the APJ receptor” (AMGEN INC., priority 2018, dated 2023)
